From ChEMBL document CHEMBL4622852, “Design and synthesis of novel proline based factor XIa selective inhibitors as leads for potential new anticoagulants” (Bioorg Med Chem Lett, 2020)
Active and inactive are the calls of the source. The rule behind the calls is not given here.

Tests used:
[1] = biological target: T1, Coagulation factor XI (Homo sapiens, UniProt P03951); assay: Inhibition of factor 11a (unknown origin)
[2] = biological target: T1, Coagulation factor XI; assay: Inhibition of factor 11a (unknown origin) at 10 uM relative to control
[3] = biological target: Prothrombin (Homo sapiens, UniProt P00734); assay: Inhibition of thrombin (unknown origin)
[4] = biological target: T2, Coagulation factor VII (Homo sapiens, UniProt P08709); assay: (§1) Inhibition of factor 7a (unknown origin)
T2 sequence (P08709 whole entry): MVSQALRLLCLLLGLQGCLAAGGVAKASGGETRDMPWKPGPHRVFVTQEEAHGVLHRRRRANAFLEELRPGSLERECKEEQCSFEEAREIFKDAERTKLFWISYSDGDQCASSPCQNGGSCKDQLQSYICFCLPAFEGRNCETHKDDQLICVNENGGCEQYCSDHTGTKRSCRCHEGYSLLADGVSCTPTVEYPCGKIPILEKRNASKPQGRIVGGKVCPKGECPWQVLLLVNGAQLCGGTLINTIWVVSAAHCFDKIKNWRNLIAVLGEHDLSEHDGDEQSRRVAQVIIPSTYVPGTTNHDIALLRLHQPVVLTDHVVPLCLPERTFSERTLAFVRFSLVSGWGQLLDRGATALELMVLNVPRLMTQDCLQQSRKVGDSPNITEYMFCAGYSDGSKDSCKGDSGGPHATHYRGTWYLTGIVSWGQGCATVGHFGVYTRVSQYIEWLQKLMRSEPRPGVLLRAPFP

[5] = biological target: Trypsin (Homo sapiens, UniProt P07477+P07478+P35030); assay: Inhibition of trypsin (unknown origin); format: protein assay
[6] = biological target: Coagulation factor IX (Homo sapiens, UniProt P00740); assay: Inhibition of factor 9a (unknown origin)
[7] = biological target: T3, Coagulation factor XII (Homo sapiens, UniProt P00748); assay: Inhibition of factor 12a (unknown origin)
T3 sequence (P00748 whole entry): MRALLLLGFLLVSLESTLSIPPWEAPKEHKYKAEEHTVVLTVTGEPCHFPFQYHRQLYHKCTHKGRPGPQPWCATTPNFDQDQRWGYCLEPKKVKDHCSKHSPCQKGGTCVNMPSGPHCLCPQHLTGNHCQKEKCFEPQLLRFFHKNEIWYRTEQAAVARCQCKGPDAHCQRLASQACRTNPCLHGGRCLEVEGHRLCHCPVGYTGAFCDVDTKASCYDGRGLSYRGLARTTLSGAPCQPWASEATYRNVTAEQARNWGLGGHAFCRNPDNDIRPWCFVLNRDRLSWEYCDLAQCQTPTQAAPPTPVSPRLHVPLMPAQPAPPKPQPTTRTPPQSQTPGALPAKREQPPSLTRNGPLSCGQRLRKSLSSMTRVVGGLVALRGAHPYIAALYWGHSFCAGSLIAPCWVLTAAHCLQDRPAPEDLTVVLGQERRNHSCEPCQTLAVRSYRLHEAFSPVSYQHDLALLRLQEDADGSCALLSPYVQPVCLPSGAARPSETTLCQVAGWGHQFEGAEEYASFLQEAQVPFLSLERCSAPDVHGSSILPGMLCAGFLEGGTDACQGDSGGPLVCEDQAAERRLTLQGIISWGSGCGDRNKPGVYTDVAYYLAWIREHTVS

[8] = biological target: Coagulation factor X (Homo sapiens, UniProt P00742); assay: Inhibition of factor 10a (unknown origin)
[9] = biological target: T4, Coagulation factor VII (Homo sapiens) (UniProt P08709); assay: as §1
T4 sequence (whole entry): T2 sequence (P08709 whole entry)

Chain of Coagulation factor IX (P00740 47-191 limits assumed): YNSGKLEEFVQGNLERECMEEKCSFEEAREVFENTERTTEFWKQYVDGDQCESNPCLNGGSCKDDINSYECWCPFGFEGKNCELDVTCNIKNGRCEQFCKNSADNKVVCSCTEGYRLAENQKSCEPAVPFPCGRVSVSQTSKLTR
Chain of Coagulation factor IX (P00740 227-461 limits assumed): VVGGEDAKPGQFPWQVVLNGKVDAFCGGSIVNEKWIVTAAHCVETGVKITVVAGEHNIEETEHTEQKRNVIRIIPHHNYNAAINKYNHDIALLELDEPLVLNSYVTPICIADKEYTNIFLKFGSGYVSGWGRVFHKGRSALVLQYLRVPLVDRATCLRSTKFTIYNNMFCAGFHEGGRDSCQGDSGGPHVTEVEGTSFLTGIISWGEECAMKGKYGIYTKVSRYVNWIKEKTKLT
T1 sequence (P03951 19-387 limits assumed): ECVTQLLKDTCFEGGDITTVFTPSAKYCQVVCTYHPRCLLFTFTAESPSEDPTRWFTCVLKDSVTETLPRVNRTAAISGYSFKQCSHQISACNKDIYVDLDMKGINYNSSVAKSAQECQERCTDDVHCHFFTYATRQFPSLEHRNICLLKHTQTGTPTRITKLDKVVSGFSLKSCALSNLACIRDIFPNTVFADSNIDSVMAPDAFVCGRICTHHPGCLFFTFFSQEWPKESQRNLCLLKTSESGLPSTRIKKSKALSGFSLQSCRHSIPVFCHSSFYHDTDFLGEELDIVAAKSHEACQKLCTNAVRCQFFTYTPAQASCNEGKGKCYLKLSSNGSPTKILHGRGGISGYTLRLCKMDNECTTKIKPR
T1 sequence (P03951 388-625 limits assumed): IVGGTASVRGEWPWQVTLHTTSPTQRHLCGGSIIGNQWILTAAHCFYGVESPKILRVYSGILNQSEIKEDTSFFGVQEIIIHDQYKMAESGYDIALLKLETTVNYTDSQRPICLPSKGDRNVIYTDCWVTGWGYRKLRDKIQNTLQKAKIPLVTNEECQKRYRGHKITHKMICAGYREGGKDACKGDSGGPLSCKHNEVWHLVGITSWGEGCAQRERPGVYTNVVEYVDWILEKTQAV
Chain of Coagulation factor X (P00742 41-179 limits assumed): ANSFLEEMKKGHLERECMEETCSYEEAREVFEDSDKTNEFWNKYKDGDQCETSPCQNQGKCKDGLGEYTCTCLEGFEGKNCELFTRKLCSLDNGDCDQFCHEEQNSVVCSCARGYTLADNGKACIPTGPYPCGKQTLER
Chain of Coagulation factor X (P00742 235-488 limits assumed): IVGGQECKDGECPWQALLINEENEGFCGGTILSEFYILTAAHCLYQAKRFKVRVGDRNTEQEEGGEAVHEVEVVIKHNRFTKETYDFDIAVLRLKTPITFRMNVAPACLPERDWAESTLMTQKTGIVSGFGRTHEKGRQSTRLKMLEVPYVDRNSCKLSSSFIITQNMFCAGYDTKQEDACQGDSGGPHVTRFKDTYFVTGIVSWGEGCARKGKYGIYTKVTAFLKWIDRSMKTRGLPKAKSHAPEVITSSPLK

Structure (SMILES) | IC50 [1] [nM] | IC50 [3] [nM] | also measured
O=C(NCc1cc(Cl)ccc1-n1cnnn1)[C@@H]1CCCN1C(=O)[C@@H](CC1CCCCC1)NC1CCCCC1 | > 30000 |  | 
Nc1ncnc2oc(CNC(=O)[C@@H]3CCCN3C(=O)[C@@H](CC3CCCCC3)NC3CCCCC3)cc12 |  |  | inhibition [2]: 8%
CO[C@H]1C[C@@H](C(=O)NCc2ccc3c(N)nccc3c2)N(C(=O)[C@@H](CC(C)C)NC2CCCCC2)C1 | 263 | > 5000 | 
CC(C)C[C@@H](NC1CCC(C(F)(F)F)CC1)C(=O)N1CCC[C@H]1C(=O)NCc1ccc2c(N)nccc2c1 (stereo partly specified) | 490 | 174 | 
CC(C)[C@@H](NC1CCCCC1)C(=O)N1CCC[C@H]1C(=O)NCc1ccc2c(N)nccc2c1 | 234 | 7 | 
Nc1nccc2cc(CNC(=O)[C@@H]3CCCN3C(=O)[C@H](NC3CCCCC3)C3CCCCC3)ccc12 | 91 | 6 | 
CCS(=O)(=O)N[C@H](CC(C)C)C(=O)N1CCC[C@H]1C(=O)NCc1ccc2c(N)nccc2c1 | 794 | 24 | 
CC[C@H](C)[C@@H](NC1CCCCC1)C(=O)N1CCC[C@H]1C(=O)NCc1ccc2c(N)nccc2c1 | 347 |  | 
CC(C)C[C@@H](NC1CCC1)C(=O)N1CCC[C@H]1C(=O)NCc1ccc2c(N)nccc2c1 | 3310 | 44 | 
CC(C)C[C@@H](NC1CCCC1)C(=O)N1CCC[C@H]1C(=O)NCc1ccc2c(N)nccc2c1 | 1380 | 38 | 
Nc1nccc2cc(CNC(=O)[C@@H]3CCCN3C(=O)[C@H](NC3CCCCC3)C3CCOCC3)ccc12 | 224 | 2 | 
Cc1cc2cc(CNC(=O)[C@@H]3CCCN3C(=O)[C@@H](CC3CCCCC3)NC3CCCCC3)ccc2c(N)n1 |  |  | inhibition [2]: 61%
CC(C)C[C@@H](NC(C)C(F)F)C(=O)N1CCC[C@H]1C(=O)NCc1ccc2c(N)nccc2c1 (stereo partly specified) | 339 | 95 | 
CC(C)C[C@@H](NC1CCCCC1)C(=O)N1CC[C@H]1C(=O)NCc1ccc2c(N)nccc2c1 | 1100 | 3 | 
Nc1nccc2cc(CNC(=O)[C@@H]3CCCN3C(=O)[C@@H](CC3CCCCC3)NC3CCCCC3)ccc12 | 160 | 1 | inhibition [9]: Active; inhibition [6]: Active; inhibition [8]: Active
CC(C)CN[C@H](CC(C)C)C(=O)N1CCC[C@H]1C(=O)NCc1ccc2c(N)nccc2c1 | 2690 | 37 | 
CC(C)C[C@@H](NC1CCCCC1)C(=O)N1C[C@@H](O)C[C@H]1C(=O)NCc1ccc2c(N)nccc2c1 | 100 | 1000 | 
CC(C)C[C@@H](NC1CCCCC1)C(=O)N1C[C@@H](F)C[C@H]1C(=O)NCc1ccc2c(N)nccc2c1 | 437 | > 5000 | 
CC(C)C[C@@H](NC1CCC(F)(F)CC1)C(=O)N1CCC[C@H]1C(=O)NCc1ccc2c(N)nccc2c1 | 417 | 120 | 
CC(C)C[C@@H](NC1CCCCC1)C(=O)N1C[C@@H](C)C[C@H]1C(=O)NCc1ccc2c(N)nccc2c1 | 2340 |  | 
CCC[C@@H](NC1CCCCC1)C(=O)N1CCC[C@H]1C(=O)NCc1ccc2c(N)nccc2c1 | 171 | 9 | 
Nc1nccc2cc(CNC(=O)[C@@H]3CCCN3C(=O)[C@@H](CC3CC3)NC3CCCCC3)ccc12 | 98 | 6 | 
Nc1ncnc2cc(CNC(=O)[C@@H]3CCCN3C(=O)[C@@H](CC3CCCCC3)NC3CCCCC3)ccc12 |  |  | inhibition [2]: 10%
CC(C)C[C@@H](NC1CCOCC1)C(=O)N1CCC[C@H]1C(=O)NCc1ccc2c(N)nccc2c1 | 1350 | 281 | 
CC(C)C[C@@H](NC1CCCCC1)C(=O)N1CCCC[C@H]1C(=O)NCc1ccc2c(N)nccc2c1 | 138 | 4 | 

Further compounds by falling IC50 [1], results first:

IC50 [1] [nM] | IC50 [3] [nM] | Structure (SMILES) | also measured
88 | 1190 | CC[C@@H](C)[C@@H](NC1CCC(F)(F)CC1)C(=O)N1C[C@](O)(CC)C[C@H]1C(=O)NCc1ccc2c(N)nccc2c1 | IC50 [4]: 3800 nM; IC50 [5]: 2701 nM; IC50 [6]: > 30000 nM; IC50 [7]: > 10000 nM; IC50 [8]: 652 nM
77 | 3630 | CC[C@@H](C)[C@@H](NC(C)C(F)F)C(=O)N1C[C@@](C)(O)C[C@H]1C(=O)NCc1ccc2c(N)nccc2c1 (stereo partly specified) | IC50 [4]: 2760 nM; IC50 [5]: 4034 nM; IC50 [6]: > 10000 nM; IC50 [7]: > 10000 nM; IC50 [8]: 798 nM
76 | > 5000 | CC(C)C[C@@H](NC1CCCCC1)C(=O)N1C[C@@H](C(F)(F)F)C[C@H]1C(=O)NCc1ccc2c(N)nccc2c1 | 
60 | 5 | CC(C)C[C@@H](NC1CCCCC1)C(=O)N1CCC[C@H]1C(=O)NCc1ccc2c(N)nccc2c1 | 
49 |  | CC(C)C[C@@H](NC1CCCCC1)C(=O)N1C[C@@](C)(O)C[C@H]1C(=O)NCc1ccc2c(N)nccc2c1 | 
46 | 521 | CC[C@@H](C)[C@@H](NS(=O)(=O)Cc1ccc(C(F)(F)F)cc1)C(=O)N1C[C@@](C)(O)C[C@H]1C(=O)NCc1ccc2c(N)nccc2c1 | IC50 [4]: 2780 nM; IC50 [5]: 2912 nM; IC50 [6]: > 30000 nM; IC50 [7]: > 30000 nM; IC50 [8]: 328 nM
28 | 289 | CC[C@@H](C)[C@@H](NC1CCCCC1)C(=O)N1C[C@@](C)(C#N)C[C@H]1C(=O)NCc1ccc2c(N)nccc2c1 | IC50 [4]: 1130 nM; IC50 [5]: 3371 nM; IC50 [6]: > 10000 nM; IC50 [7]: 7290 nM; IC50 [8]: 2740 nM
22 | 92 | CC[C@@H](C)[C@@H](NC1CCCCC1)C(=O)N1C[C@](O)(CC)C[C@H]1C(=O)NCc1ccc2c(N)nccc2c1 | IC50 [4]: 646 nM; IC50 [5]: 410 nM; IC50 [6]: > 10000 nM; IC50 [7]: 426 nM; IC50 [8]: 93 nM
21 | 309 | CC[C@@H](C)[C@@H](NC1CCCCC1)C(=O)N1C[C@@H](O)C[C@H]1C(=O)NCc1ccc2c(N)nccc2c1 | IC50 [4]: 993 nM; IC50 [5]: 824 nM; IC50 [6]: 8330 nM; IC50 [7]: 341 nM; IC50 [8]: 136 nM
16 |  | CC[C@@H](C)[C@@H](NC1CCCCC1)C(=O)N1CCC[C@H]1C(=O)NCc1ccc2c(N)nccc2c1 | 
15 | 370 | CC[C@@H](C)[C@@H](NS(=O)(=O)Cc1ccc(Cl)cc1)C(=O)N1C[C@@](C)(O)C[C@H]1C(=O)NCc1ccc2c(N)nccc2c1 | IC50 [4]: 2020 nM; IC50 [5]: 2020 nM; IC50 [6]: > 20000 nM; IC50 [7]: > 30000 nM; IC50 [8]: 78 nM
12 | 218 | CC[C@@H](C)[C@@H](NC1CCCCC1)C(=O)N1C[C@@](C)(O)C[C@H]1C(=O)NCc1ccc2c(N)nccc2c1 | IC50 [4]: 461 nM; IC50 [5]: 547 nM; IC50 [6]: 7830 nM; IC50 [7]: 241 nM; IC50 [8]: 49 nM
10 | 43 | CC[C@@H](C)[C@@H](NS(=O)(=O)Cc1ccc(Cl)cc1)C(=O)N1C[C@@](C)(C#N)C[C@H]1C(=O)NCc1ccc2c(N)nccc2c1 | IC50 [4]: 285 nM; IC50 [5]: 2526 nM; IC50 [6]: > 30000 nM; IC50 [7]: > 20000 nM; IC50 [8]: 829 nM
